Reference: patent publication US20250277012A1 (Protagonist Therapeutics, Inc., priority 2021, published 2025)
pIC50: −log10 of the molar value. Like-named read-outs stand apart in the source and are kept apart here. Starred links: 1 amine or outer side, 2 acyl side, 3 side chain; linkers in the order of their positions; H or OH if unused. Positions of bridges follow the written chain, without caps; N, C: chain ends. Non-standard residues stand in square brackets, D forms with d. Residues, ends and D or L forms follow the SMILES beside them. Groups on a side chain read outwards from the residue. *: point of attachment. X1 = C[N+](C)(CCNC(=O)CCCCCCCCCCCCCCCCC(=O)O)CC(=O)*; C18 diacid = O=C(O)CCCCCCCCCCCCCCCCC(=O)*; Dip = N[C@H](C(=O)O)C(c1ccccc1)c1ccccc1; γGlu = O=C(O)[C@H](CCC(=O)[*:2])N[*:1]; 1Nal = N[C@@H](Cc1cccc2ccccc12)C(=O)O; Palmitoyl = CCCCCCCCCCCCCCCC(=O)*; NMeF = CN[C@@H](Cc1ccccc1)C(=O)O; β3hF = N[C@H](CC(=O)O)Cc1ccccc1; NMeK = CN[C@@H](CCCCN)C(=O)O; Tle = CC(C)(C)[C@H](N)C(=O)O; αMeK = C[C@](N)(CCCCN)C(=O)O; Isovaleryl = CC(C)CC(=O)*; NMeS = CN[C@@H](CO)C(=O)O; hCys = N[C@@H](CCS)C(=O)O; Dap = NC[C@H](N)C(=O)O; AEEA = NCCOCCOCC(=O)O; Ahx = NCCCCCC(=O)O

Tests used:
ferroportin [1] = molecular target: T1, ferroportin (Homo sapiens, UniProt Q9NP59); assay: FPN activity assay: ferroportin-GFP internalization/degradation in HEK293 cells; format: cell-based; parameters: expressed in transfected cells; settings: read-out: FPN IC50
T1 sequence (Q9NP59 1-571): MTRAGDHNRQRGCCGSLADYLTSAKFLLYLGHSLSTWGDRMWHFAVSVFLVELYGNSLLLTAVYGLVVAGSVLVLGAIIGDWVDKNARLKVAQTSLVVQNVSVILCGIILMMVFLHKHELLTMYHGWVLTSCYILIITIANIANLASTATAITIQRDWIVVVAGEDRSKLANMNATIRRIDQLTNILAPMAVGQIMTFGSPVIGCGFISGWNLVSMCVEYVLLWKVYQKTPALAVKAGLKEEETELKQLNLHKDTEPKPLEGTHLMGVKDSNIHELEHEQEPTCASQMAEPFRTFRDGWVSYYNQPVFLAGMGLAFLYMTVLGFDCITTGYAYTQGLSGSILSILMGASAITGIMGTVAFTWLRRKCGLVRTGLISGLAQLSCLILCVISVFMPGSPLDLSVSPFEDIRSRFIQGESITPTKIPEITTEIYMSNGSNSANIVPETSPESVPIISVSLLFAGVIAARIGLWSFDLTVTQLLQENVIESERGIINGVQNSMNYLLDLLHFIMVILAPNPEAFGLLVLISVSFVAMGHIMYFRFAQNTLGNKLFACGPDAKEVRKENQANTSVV
Method: Following internalization, the ferroporin protein is degraded.
A retro inverse peptide is a peptide with a reversed sequence in all D amino acids. An example is that Hy-Glu-Thr-His-NH2 becomes Hy-DHis-DThr-DGlu-NH2. The EC50 of these reference compounds for ferroportin internalization/degradation was determined according to the FPN activity assay described above. These peptides served as control standards.

ferroportin [2] = molecular target: T1, ferroportin; assay: T47D cell-based ferroportin internalization assay in presence of mouse serum albumin (MSA); parameters: a human breast carcinoma adherent cell line which endogenously expresses ferroportin; host or cells: T47D
Method in brief: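 Peptide potency for inducing ferroportin internalization was measured in T47D cells in the presence of serum albumin. Cells grown in RPMI with fetal bovine serum were seeded in 96-well plates at 80-100 k cells per well in 100 ul and rested overnight. Dilution series of test peptides were preincubated 30 min at room temperature, then added to the cells after the medium was aspirated.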

[3] = ferroportin-GFP internalization/degradation, HEK293 cells, Table 6E
[4] = T47D internalization assay in presence of mouse serum albumin (MSA), Table 6E

| Compound | DC50 (ferroportin [1]; [3]) | pIC50 (ferroportin [2]; [4]) | further results |
| --- | --- | --- | --- |
| CC(C)CC(=O)N[C@@H](CCC(=O)O)C(=O)N[C@H](C(=O)N[C@@H](Cc1c[nH]cn1)C(=O)N[C@H](C(=O)N1CCC[C@H]1C(=O)N[C@H]1CSSC[C@@H](C(=O)N(C)[C@@H](CCCCNC(=O)COCCOCCNC(=O)COCCOCCNC(=O)[C@H](CN)NC(=O)CCCCCCCCCCCCCCCCC(=O)O)C(=O)N[C@H](CC(=O)N[C@H](C(N)=O)C(C)(C)C)Cc2ccccc2)NC1=O)C(c1ccccc1)c1ccccc1)[C@@H](C)O [compound 290] (Isovaleryl-ETH[Dip]PCC[NMeK]([AEEA-AEEA-Dap-C18 diacid])[β3hF][Tle]-NH2; disulfide 6-7) | 10 to 100 nM | 7.00 to 8.00 |  |
| CC(C)CC(=O)N[C@@H](CCC(=O)O)C(=O)N[C@H](C(=O)N[C@@H](Cc1c[nH]cn1)C(=O)N[C@H](C(=O)N1CCC[C@H]1C(=O)N[C@H]1CSSC[C@@H](C(=O)N(C)[C@@H](CCCCNC(=O)COCCOCCNC(=O)COCCOCCNC(=O)[C@H](CN)NC(=O)CCCCCCCCCCCCCCCCC(=O)O)C(=O)N[C@H](CC(=O)N[C@H](CCCCN)C(=O)N[C@@H](Cc2cccc3ccccc23)C(N)=O)Cc2ccccc2)NC1=O)C(c1ccccc1)c1ccccc1)[C@@H](C)O [compound 258] (Isovaleryl-ETH[Dip]PCC[NMeK]([AEEA-AEEA-Dap-C18 diacid])[β3hF][dK][1Nal]-NH2; disulfide 6-7) | 10 to 100 nM | 7.00 to 8.00 |  |
| CC(C)CC(=O)N[C@@H](CCC(=O)O)C(=O)N[C@H](C(=O)N[C@@H](Cc1c[nH]cn1)C(=O)N[C@H](C(=O)N1CCC[C@H]1C(=O)N[C@H]1CSSCC[C@@H](C(=O)N(C)[C@@H](CCCCNC(=O)COCCOCCNC(=O)COCCOCCNC(=O)[C@H](CN)NC(=O)CCCCCCCCCCCCCCCCC(=O)O)C(=O)N[C@H](CC(=O)N[C@H](CCCCN)C(N)=O)Cc2ccccc2)NC1=O)C(c1ccccc1)c1ccccc1)[C@@H](C)O [compound 270] (Isovaleryl-ETH[Dip]PC[hCys][NMeK]([AEEA-AEEA-Dap-C18 diacid])[β3hF][dK]-NH2; disulfide 6-7) | 10 to 100 nM | 7.00 to 8.00 |  |
| CC(C)CC(=O)N[C@@H](CCC(=O)O)C(=O)N[C@H](C(=O)N[C@@H](Cc1c[nH]cn1)C(=O)N[C@H](C(=O)N1CCC[C@H]1C(=O)N[C@H]1CSSC[C@@H](C(=O)N(C)[C@@H](CCCCNC(=O)COCCOCCNC(=O)COCCOCCNC(=O)[C@H](CN)NC(=O)CCCCCCCCCCCCCCCCC(=O)O)C(=O)N[C@H](CC(N)=O)Cc2ccccc2)NC1=O)C(c1ccccc1)c1ccccc1)[C@@H](C)O [compound 295] (Isovaleryl-ETH[Dip]PCC[NMeK]([AEEA-AEEA-Dap-C18 diacid])[β3hF]-NH2; disulfide 6-7) | 10 to 100 nM | 7.00 to 8.00 |  |
| COC(=O)CC[C@H](NC(=O)CC(C)C)C(=O)N[C@H](C(=O)N[C@@H](Cc1c[nH]cn1)C(=O)N[C@H](C(=O)N1CCC[C@H]1C(=O)N[C@H]1CSSC[C@@H](C(=O)N[C@@](C)(CCCCNC(=O)COCCOCCNC(=O)COCCOCCNC(=O)[C@H](CN)NC(=O)CCCCCCCCCCCCCCCCC(=O)O)C(=O)N[C@H](CC(=O)N[C@H](CCCCN)C(N)=O)Cc2ccccc2)NC1=O)C(c1ccccc1)c1ccccc1)[C@@H](C)O [compound 301] (Isovaleryl-E(OMe)TH[Dip]PCC[αMeK]([AEEA-AEEA-Dap-C18 diacid])[β3hF][dK]-NH2; disulfide 6-7) | 10 to 100 nM | 7.00 to 8.00 |  |
| COC(=O)CC[C@H](NC(=O)CC(C)C)C(=O)N[C@@H](CO)C(=O)N[C@@H](Cc1c[nH]cn1)C(=O)N(C)[C@@H](Cc1ccccc1)C(=O)N1CCC[C@H]1C(=O)N[C@H]1CSSC[C@@H](C(=O)N(C)[C@@H](CCCCNC(=O)CCCCCNC(=O)C[N+](C)(C)CCNC(=O)CCCCCCCCCCCCCCCCC(=O)O)C(=O)N[C@H](C(=O)N[C@H](CCCCN)C(N)=O)C(c2ccccc2)c2ccccc2)NC1=O [compound 148] (Isovaleryl-E(OMe)SH[NMeF]PCC[NMeK]([Ahx-X1])[Dip][dK]-NH2; disulfide 6-7) |  |  | DC50 (ferroportin [1]; Table 6E, ferroportin-GFP internalization/degradation, at least 18 hours incubation): > 500 nM; pIC50 (ferroportin [2]; Table 6E, T47D internalization assay with MSA): < 6.30 |
| CC[C@H](C)[C@@H]1NC(=O)[C@@H](NC(=O)[C@@H]2CCCN2C(=O)[C@@H](NC(=O)[C@H](Cc2c[nH]cn2)NC(=O)[C@@H](NC(=O)[C@H](CCC(=O)O)NC(=O)CC(C)C)[C@@H](C)O)C(c2ccccc2)c2ccccc2)CSSC[C@@H](C(N)=O)NC(=O)C[C@H](Cc2ccccc2)NC(=O)[C@H](CCCCNC(=O)COCCOCCNC(=O)COCCOCCNC(=O)CC[C@H](NC(=O)CCCCCCCCCCCCCCCCC(=O)O)C(=O)O)NC1=O [Compd 32] (Isovaleryl-ETH[Dip]PCIK([AEEA-AEEA-γGlu-C18 diacid])[β3hF]C-NH2; disulfide 6-10) |  |  | DC50 (ferroportin [1]; ferroportin-GFP HEK293 cells, at least 18 hours): 10 to 100 nM; pIC50 (ferroportin [2]; T47D cells, 0.5% mouse serum albumin, 1 hr incubation): 6.30 to 7.00 |

More lines, main results first:

| DC50 (ferroportin [1]; [3]) | pIC50 (ferroportin [2]; [4]) | Compound | further results |
| --- | --- | --- | --- |
| 10 to 100 nM | 8.00 to 9.00 | CCCCCCCCCCCCCCCC(=O)NCCCCCC(=O)NCCCC[C@@H](C(=O)N[C@H](CC(=O)N[C@H](CCCCN)C(N)=O)Cc1ccccc1)N(C)C(=O)[C@@H]1CSSC[C@H](NC(=O)[C@@H]2CCCN2C(=O)[C@@H](NC(=O)[C@H](Cc2cnc[nH]2)NC(=O)[C@@H](NC(=O)[C@H](CCC(=O)OC)NC(=O)CC(C)C)[C@@H](C)O)C(c2ccccc2)c2ccccc2)C(=O)N1 [compound 307] (Isovaleryl-E(OMe)TH[Dip]PCC[NMeK]([Ahx-Palmitoyl])[β3hF][dK]-NH2; disulfide 6-7) |  |
| 10 to 100 nM | 7.00 to 8.00 | CC(C)CC(=O)N[C@@H](CCC(=O)O)C(=O)N[C@H](C(=O)N[C@@H](Cc1cnc[nH]1)C(=O)N[C@H](C(=O)N1CCC[C@H]1C(=O)N[C@H]1CSSC[C@@H](C(=O)N(C)[C@@H](CCCCNC(=O)COCCOCCNC(=O)COCCOCCNC(=O)C[N+](C)(C)CCNC(=O)CCCCCCCCCCCCCCCCC(=O)O)C(=O)N[C@H](CC(=O)N[C@H](CCCCN)C(N)=O)Cc2ccccc2)NC1=O)C(c1ccccc1)c1ccccc1)[C@@H](C)O [compound 283] (Isovaleryl-ETH[Dip]PCC[NMeK]([AEEA-AEEA-X1])[β3hF][dK]-NH2; disulfide 6-7) |  |
| 10 to 100 nM | 7.00 to 8.00 | CC(C)CC(=O)N[C@@H](CCC(=O)O)C(=O)N[C@H](C(=O)N[C@@H](Cc1c[nH]cn1)C(=O)N[C@H](C(=O)N1CCC[C@H]1C(=O)N[C@H]1CSSC[C@@H](C(=O)N(C)[C@@H](CCCCNC(=O)COCCOCCNC(=O)COCCOCCNC(=O)[C@H](CN)NC(=O)CCCCCCCCCCCCCCCCC(=O)O)C(=O)N[C@H](CC(=O)N[C@H](CCCCN)C(=O)N(C)[C@@H](CO)C(N)=O)Cc2ccccc2)NC1=O)C(c1ccccc1)c1ccccc1)[C@@H](C)O [compound 260] (Isovaleryl-ETH[Dip]PCC[NMeK]([AEEA-AEEA-Dap-C18 diacid])[β3hF][dK][NMeS]-NH2; disulfide 6-7) |  |
| 10 to 100 nM | 7.00 to 8.00 | CC(C)CC(=O)N[C@@H](CCC(=O)O)C(=O)N[C@H](C(=O)N[C@@H](Cc1c[nH]cn1)C(=O)N[C@H](C(=O)N1CCC[C@H]1C(=O)N[C@H]1CSSC[C@@H](C(=O)N[C@@H](CCCCNC(=O)CCCCCNC(=O)C[N+](C)(C)CCNC(=O)CCCCCCCCCCCCCCCCC(=O)O)C(=O)N[C@H](CC(=O)N[C@H](CCCCN)C(N)=O)Cc2ccccc2)NC1=O)C(c1ccccc1)c1ccccc1)[C@@H](C)O [compound 312] (Isovaleryl-ETH[Dip]PCCK([Ahx-X1])[β3hF][dK]-NH2; disulfide 6-7) |  |
